Results reported in US20110144140A1, “PYRIDINYL-PYRIMIDINE DERIVATIVES USEFUL AS POTASSIUM CHANNEL MODULATING AGENTS” (priority 2006, published 2011).
Where a name gives a salt, the structure may show the parent alone.

Legend:
[1] = target: T1, hSK3 channels (Homo sapiens, UniProt Q9UGI6); experiment: whole-cell patch-clamp recording of ionic current through SK channels, subtype 3, in HEK293 cells; format: cell-based; conditions: HEK293 cells expressing hSK3, baseline current at −75 mV, free Ca2+ 0.3-0.4 μM
T1 construct: expressed in transfected cells; host or cells: HEK293
Experimental: The ionic current through small-conductance Ca^2+-activated K^+ channels (SK channels, subtype 3) is recorded using the whole-cell configuration of the patch-clamp technique.
HEK293 tissue culture cells expressing hSK3 channels were grown in DMEM (Dulbecco's Modified Eagle Medium) supplemented with 10% FCS (foetal calf serum) at 37° C. in 5% CO2. At 60-80% confluency, cells were harvested by trypsin treatment and seeded on cover slips.
Experiments are carried out on one of several patch-clamp set-ups. Cells plated on coverslips are placed in a 15 μl perfusion chamber (flowrate ˜1 ml/min) mounted on an IMT-2 microscope. The microscopes are placed on vibration-free tables in grounded Faraday cages. All experiments are performed at room temperature (20-22° C.). […] Data are stored directly on the hard-disk and analysed by IGOR software (Wavemetrics, Lake Oswega, Oreg., USA).
The whole-cell configuration of the patch-clamp technique is applied. […] Cell capacitance is electronically compensated and the resistance between the pipette and the cell interior (the series resistance, Rs) is measured and compensated for. […]
The intracellular (pipette) solution contained: 154 mM KCl, 10 mM HEPES, 10 mM EGTA. Concentrations of CaCl2 and MgCl2 needed to obtain the desired free concentrations of Ca^2+ (0.3-0.4 μM, Mg^2+ always 1 mM) were calculated by EqCal software (Cambridge, UK) and added. […]

T1 sequence (Q9UGI6 whole entry): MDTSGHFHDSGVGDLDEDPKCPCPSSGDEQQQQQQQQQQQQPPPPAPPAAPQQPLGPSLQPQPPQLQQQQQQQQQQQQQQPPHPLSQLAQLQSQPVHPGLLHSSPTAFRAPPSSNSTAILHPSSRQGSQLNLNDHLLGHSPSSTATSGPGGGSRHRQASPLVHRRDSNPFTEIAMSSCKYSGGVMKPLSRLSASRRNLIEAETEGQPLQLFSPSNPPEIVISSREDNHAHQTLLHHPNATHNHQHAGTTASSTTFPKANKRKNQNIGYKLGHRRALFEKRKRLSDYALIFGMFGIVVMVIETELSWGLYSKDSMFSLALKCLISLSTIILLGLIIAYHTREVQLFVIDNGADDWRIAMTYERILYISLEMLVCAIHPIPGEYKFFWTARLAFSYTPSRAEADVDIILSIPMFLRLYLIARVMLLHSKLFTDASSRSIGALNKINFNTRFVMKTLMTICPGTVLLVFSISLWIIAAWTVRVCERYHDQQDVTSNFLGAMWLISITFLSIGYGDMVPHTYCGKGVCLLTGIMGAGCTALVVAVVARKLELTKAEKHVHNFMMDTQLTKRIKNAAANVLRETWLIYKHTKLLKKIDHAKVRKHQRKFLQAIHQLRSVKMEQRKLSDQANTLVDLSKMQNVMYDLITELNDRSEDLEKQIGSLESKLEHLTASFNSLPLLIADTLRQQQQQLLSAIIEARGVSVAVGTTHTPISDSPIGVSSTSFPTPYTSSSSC

SMILES	melting point	SC100 (Stimulating Concentration required for increasing the baseline current by 100%) [1]
Cc1cccc(-c2nc(C)cc(NC3CCCCC3)n2)n1	59.6 to 65 °C	–
Cc1cc(Nc2ccc(Cl)cc2)nc(-c2cccc(Cl)n2)n1 (as salt: hydrochloride) [Compound 4A, (4-Chloro-phenyl)-[6-methyl-2-(6-chloro-pyridin-2-yl)-pyrimidin-4-yl]-amine]	239 °C	–
Cc1cc(Nc2ccc(Cl)cc2)nc(-c2cccc(Cl)n2)n1 [Compound 4A, (4-Chloro-phenyl)-[6-methyl-2-(6-chloro-pyridin-2-yl)-pyrimidin-4-yl]-amine]	–	0.3 µM
